Here are results for three compounds from the NIST ThermoML archive (doi:10.1016/j.fluid.2015.07.037).

± gives the expanded uncertainty stated by the source.

For data set [1] the following is noted: Crystal; DTA.
Data set [2] in a line: Molar enthalpy of transition or fusion. The settings on record: Crystal; DSC.

`C[C@H](N)[C@H](O)c1cccc(O)c1.O=C(O)[C@H](O)[C@@H](O)C(=O)O`: the Normal melting temperature in data set [1] amounted to 179.54 ± 0.41 °C. Further, the “Molar enthalpy of transition or fusion” value in data set [2] was determined as 18.5 ± 0.382 kcal/mol.
On the same counts, the results for `CC(C)NCC(O)c1ccc(O)c(O)c1.Cl` (stereo unspecified) are 170.22 ± 0.41 °C and 19.1 ± 0.382 kcal/mol.
`CNCC(O)c1ccc(O)cc1` (stereo unspecified) [synephrine]: the Normal melting temperature in data set [1] turned out to be 190.38 ± 0.41 °C. Besides, in data set [2], the “Molar enthalpy of transition or fusion” value was 23.8 ± 0.478 kcal/mol.
